Columns and labels:
[1] = tested on: mouse macrophages (RAW 264.7); test: In vitro innate immunity: cytokine secretion (ELISA) of macrophages treated with indoor dust-derived vesicles; assay type: cell-based; conditions: Dust-EV treated with PMB or heat, vs Dust-EV alone
Method: Indoor dust was solubilized in PBS to separate extracellular vesicles and soluble components. The induction of innate immune responses by the vesicles and the water-soluble components was examined in vitro by applying them to mouse macrophages and measuring cytokine levels in the culture media.
(§1) In detail, mouse macrophages (RAW264.7) were seeded at a density of 1×10^5 cells/well into 24 well plates and maintained for 24 hours. After the cells were washed with PBS, a fresh DMEM medium was added to the cells which were then incubated for 15 hours with dust-derived extracellular vesicles (Dust-EV, 0.1 μg/ml) and soluble components (Dust-soluble, 8 μg/ml), separately. The culture media were harvested and centrifuged at 4° C. and 800×g for 10 min. Cytokines in the supernatant were quantitatively analyzed by enzyme linked immunosorbent assay (ELISA).
In addition, cytokine levels were measured after the cells were treated with 100 ng/ml and 1 μg/ml of the extracellular vesicles in the same manner as described above.
It is well known that LPS, found in the outer membrane of Gram-negative bacteria, acts as an endotoxin to induce innate immune responses and that it has been detected in indoor dust.

C57BL/6 mice = test: In vivo acquired immune response to repetitive intranasal Dust-EV with or without PMB; design: species or system mouse
Method: C57BL/6 mice (6 weeks old, female, four in each group) were intranasally administered twice a week for three weeks with 1 μg of indoor dust-derived extracellular vesicles in 30 μl of PBS. In addition, the vesicles were administered together with PMB so as to examine the presence and role of LPS therein. Twenty four hours after injection, clinical analysis was performed.
Moreover, the immunological mechanism associated with the onset of lung inflammation was evaluated. Immune cells were separated from local lymph nodes and analyzed for the expression levels of IFN-γ and IL-17.

[2] = tested on: mouse macrophages (RAW 264.7); test: In vitro innate immune response: cytokine secretion (ELISA) of macrophages treated with HDM-EV; assay type: cell-based; conditions: house dust mite-derived vesicles with Polymyxin B
Method: as §1, with “grown” for “maintained”, “100 ng, 1 μg and 10 μg of house dust mite-derived” for “dust-derived”, “(HDM-EV).” for “(Dust-EV, 0.1 μg/ml) and soluble components (Dust-soluble, 8 μg/ml), separately.”

[3] = vesicles in combination with PMB, ELISA

Polymyxin B [PMB]
vesicle-induced secretion of IL-6 [1]: significantly reduced | vesicle-induced secretion of TNF-α [1]: significantly decreased | count of inflammatory cells in BAL fluid (C57BL/6 mice; Dust-EV administered together with PMB (Dust-EV+PMB), in contrast to vesicles alone): low | count of T cells secreting IFN-γ and IL-17 in local lymph nodes (C57BL/6 mice; Dust-EV in the presence of PMB): reduced the count of T cells including those secreting IFN-γ and IL-17 in local lymph nodes | level of IgG1 specific for indoor dust-derived vesicles in sera (C57BL/6 mice; [3]): reduced to almost the same as those of the PBS group | level of IgG2a specific for indoor dust-derived vesicles in sera (C57BL/6 mice; [3]): reduced to almost the same as those of the PBS group | vesicle-induced secretion of inflammatory mediators [2]: suppressed

— US8691522B2, “Composition comprising extracellular membrane vesicles derived from indoor air, and use thereof” (priority 2009, dated 2014)
